Values of other authors in US20100048608A1, “Histone Deacetylase Inhibitors for the Treatment of Ocular Neovascular or Edematous Disorders and Diseases” (ALCON, INC., priority 2002, published 2010).

Columns and labels:
tumors = conditions: Butler et al. 2000
cancer cell [1] = conditions: Munster et al. 2001
[2] = phase I clinical trials; Kelly et al. 2001
cancer cell [3] = conditions: Butler et al. 2002
[4] = system: corneal neovascularization; conditions: in combination with a beta cyclodextrin; Li et al. 1991

O=C(CCCCCCC(=O)Nc1ccccc1)NO [SAHA, suberoylanilide hydroxamic acid]
effect on tumors in animal models (tumors): shrink tumors in animal models
induction of cancer cell differentiation (cancer cell [1]): potent inducer of cancer cell differentiation
dose-limiting toxicity [2]: almost no dose-limiting toxicity
suppression of white blood cell production [2]: no suppression of white blood cell production
cancer cell growth in vitro (cancer cell [3]): arrest cancer cell growth in vitro

C[C@@H]1C[C@H]2[C@@H]3C[C@H](F)C4=CC(=O)CC[C@]4(C)C3=CC[C@]2(C)[C@@]1(O)C(=O)CO [U-72,745G]
inhibition of corneal neovascularization [4]: inhibit corneal neovascularization

C[C@]12CCC(=O)C=C1CC[C@@H]1[C@@H]2[C@@H](O)C[C@@]2(C)[C@H]1CC[C@]2(O)C(=O)CO [hydrocortisone]
inhibition of corneal neovascularization [4]: inhibit corneal neovascularization

C[C@]12CC[C@@H](O)C[C@H]1CC[C@@H]1[C@@H]2CC[C@@]2(C)[C@H]1CC[C@]2(O)C(=O)CO [tetrahydrocortisol-S]
inhibition of corneal neovascularization [4]: inhibit corneal neovascularization
